This note sets out measurements from PubChem BioAssay (NCI).

Where “and” joins values, the source holds several entries; their conditions need not be identical. Equal values may be shown once.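 A five-concentration, 48-hour dose response in 96-well plates underlies each endpoint, interpolated linearly between surrounding concentrations. At the GI50, growth is halved. TGI denotes the concentration required for complete inhibition of growth.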

Experiment in all cases: NCI-60 cell line screen, 48 h
Assay [1] relates to OVCAR-8 ovarian.
Assay [2] deals with RPMI-8226 leukemia.
The subject of assay [3] is HCC-2998 colon.
Assay [4] has as its system SK-MEL-5 melanoma.
Assay [5] relates to PC-3 prostate.
Assay [6] deals with UO-31 renal.
Assay [7] relates to SK-MEL-2 melanoma.
The subject of assay [8] is SR leukemia.
In assay [9] the test system is OVCAR-5 ovarian.
Assay [10] relates to M14 melanoma.

As to `Cn1cnc2nc(Cl)nc(Cl)c21`, the GI50 was 3.5 µM in assay [1]; 0.591 µM in assay [2]; 3.85 µM in assay [3]; 2.7 µM in assay [4]; 0.594 µM in assay [5]; 9.96 µM in [6]. The GI50 in assay [7] was 2.7 µM; in assay [8], 0.599 µM; in [9], 3.56 µM. Also, the TGI was 26.2 µM in assay [1]; 26.4 µM in assay [2]; 15.6 µM in assay [3]; 10.8 µM in assay [4]; 12.8 µM in assay [5]; greater than 100 µM in assay [6]. In addition, the figures for the TGI in [7], in [8] and in assay [9] were 10.2 µM, 28.7 µM and 19.9 µM, respectively.

For the molecule `COC(=O)[C@@H](C)C[C@H](Cc1ccccc1)NC(=O)c1cccc([C@@H](C[C@H](C(C)C)N(C)C(=O)[C@@H](NC(=O)[C@H]2CCCCN2C)C(C)C)OC(C)=O)n1`, the GI50 was 0.00243 µM in assay [1]; less than 0.00167 µM in [2]; less than 0.00167 µM in assay [10]; less than 0.00167 µM in assay [3]; less than 0.00167 µM in assay [4]; less than 0.00167 µM in assay [5]. Besides, the GI50 in assay [6] is 0.0127 µM; in assay [8], less than 0.00167 µM; in assay [9], 0.00772 µM. Also, the TGI in assay [1] is greater than 16.7 µM; in assay [2], greater than 16.7 µM; in assay [10], 0.224 µM; in assay [3], greater than 7.55 µM; in assay [4], 0.0252 µM; in assay [5] it was greater than 16.7 µM. For the same molecule, the TGI in assay [6], in assay [8] and in [9] was greater than 16.7 µM throughout.

On to `Cc1ccc(SCN2CCCCC2)cc1` (tested in a mixture with another compound), for which the TGI was greater than 100 µM in [1]; 29.5 µM in assay [2]; 37.3 µM in assay [10]; 12.5 µM in [4]; 30.2 µM in assay [5]; 30.2 µM in assay [6]. In addition, the TGI stood at 31.1 µM in assay [7], 25.6 µM in assay [8] and 25.8 µM in assay [9].

Turning to `CCOC(=O)c1ccccc1NC(c1ccccc1)c1ccc2cccnc2c1O` (stereo not drawn), the GI50 in assay [1] is 3.31 µM; in [2], 3.06 µM; in assay [3], 5.77 µM; in assay [4] it was 2.04 µM; in assay [5] it was 5.13 µM; in [6], 2.03 µM. The GI50 is 3.74 µM in [7], 2.02 µM in assay [8] and 8.64 µM in [9]. Also, the TGI in [1] was 52.2 µM; in assay [2], greater than 100 µM; in [3], greater than 100 µM; in [4], 6.74 µM; in [5] it was greater than 100 µM; in assay [6], greater than 100 µM. Besides, the TGI in assay [7] was 45.1 µM; in assay [8], 10.3 µM; in assay [9], greater than 100 µM.

Take `CC(C)(O)C1CC(=O)C(C)(C2C(O)CC3(C)C4CC=C5C(CCC(O)C5(C)C)C4(C)C(=O)CC23C)O1` (stereo not drawn): the TGI in [1], in assay [2], in [10], in [3], in assay [4] and in assay [5] was greater than 100 µM in each case. Also, the TGI in assay [6], in assay [7] and in [9] was greater than 100 µM throughout.

With `Cn1c(N)c(N=Nc2ccc(S(N)(=O)=O)cc2)c(=O)n(C)c1=O`, the TGI in [1], in [2], in assay [10], in assay [4], in assay [5] and in [6] was greater than 100 µM in each case. Further, the TGI in assay [7], in assay [8] and in [9] was greater than 100 µM throughout.

As for `COc1cccc2c1C(=N)c1c(O)c3c(c(O)c1C2=O)C[C@@](O)(C(C)=O)C[C@@H]3OC1CC(N)C(O)C(C)O1` (stereo partly drawn), the TGI in [1] was 2.62 µM and 3.56 µM; in assay [10], 4.58 µM and 1.59 µM; in assay [3], 2.48 µM and 3.14 µM and 0.541 µM; in assay [4], 1.55 µM and 1.74 µM and 1.98 µM; in [5], 2.98 µM; in [7], 4.6 µM and 6.27 µM and 1.23 µM. Also, the GI50 in assay [10] is 0.705 µM and 0.206 µM; in assay [8], 0.0196 µM.

In the case of `CCCCCCCCCCCCOC1C(C(COC2OC(C(O)CO)C3OC(C)(C)OC23)OC(=O)Nc2ccc([N+](=O)[O-])cc2)OC2OC(C)(C)OC21` (stereo not drawn), the GI50 is 3.59 µM in assay [1]; 2.7 µM in assay [2]; 1.81 µM in assay [10]; 11.6 µM in assay [3]; 1.71 µM in [4]; 2.42 µM in [5]. For the same molecule, the figures for the GI50 in assay [6], in assay [7] and in assay [9] were 3.62 µM, 2.09 µM and 5.41 µM, respectively. Besides, the TGI in [1] came to 14.5 µM; in assay [2], 7.2 µM; in assay [10], 3.44 µM; in assay [3] it was 25.1 µM; in [4], 3.11 µM; in assay [5] it was 5.63 µM. For the same molecule, the TGI is 12.9 µM in assay [6], 5.09 µM in assay [7] and 19.1 µM in assay [9].

Regarding `COc1cc(OC)c(-c2oc3ccccc3c(=O)c2O)c(OC)c1`, the TGI in [1], in assay [2], in assay [10], in assay [4], in assay [5] and in [6] was greater than 100 µM throughout. Further, the TGI in assay [8] and in assay [9] was greater than 100 µM throughout.

Consider `NC(=O)NOCC1NC(=O)NC1=O` (stereo not drawn), for which the TGI in assay [1], in assay [2], in [10], in assay [4], in assay [5] and in [6] was greater than 100 µM each time. For the same molecule, the TGI in assay [7], in assay [8] and in assay [9] was greater than 100 µM each time.

As to `Oc1c(Br)cc(Br)c2cccnc12`, the GI50 is 3.75 µM in assay [1]; 3.45 µM in [2]; 2.14 µM in assay [10]; 3.61 µM in [3]; 2.09 µM in [4]; 4.5 µM in assay [5]. Further, the figures for the GI50 in [6], in assay [8] and in assay [9] were 2.56 µM, 3.07 µM and 6.21 µM, respectively. Moreover, the TGI was greater than 100 µM in assay [1]; 24.8 µM in [2]; 5.11 µM in [10]; 18.8 µM in assay [3]; 5.19 µM in assay [4]; greater than 100 µM in [5]. The TGI amounted to 16.5 µM in assay [6], 13.7 µM in [8] and 49.5 µM in [9].

Take `N#Cc1c(-c2ccc(Cl)cc2)n([O-])c2ccccc2[n+]1=O`: the GI50 in assay [1] is 9.68 µM; in assay [2], 1.99 µM; in assay [3] it was 13.3 µM; in assay [4], 15.9 µM; in [5], 3.26 µM; in assay [6], 13.7 µM. The values for the GI50 in assay [7] and in assay [9] were 37.3 µM and 16.7 µM, respectively. Further, the TGI in [1] amounted to 39 µM; in assay [2] it was 5.11 µM; in assay [3], 26 µM; in assay [4] it was 31.7 µM; in assay [5], 13 µM; in assay [6], 29.7 µM. The TGI in assay [7] was greater than 100 µM; in assay [9], 30.6 µM.

Turning to `CNCc1ccc(C)c(NC(=O)c2ccc(Nc3nc(-c4ccccc4)c4ccccc4n3)cc2)c1`, the GI50 was 1.85 µM in [1]; 1.83 µM in assay [10]; 1.96 µM in [3]; 1.71 µM in [4]; 1.92 µM in assay [5]; 1.67 µM in assay [6]. The GI50 in assay [7] was 1.9 µM; in assay [8], 1.79 µM; in assay [9], 2.13 µM. For the same molecule, the TGI came to 3.93 µM in assay [1]; 3.4 µM in [10]; 3.58 µM in [3]; 3.12 µM in [4]; 4.15 µM in [5]; 3.75 µM in assay [6]. Further, the TGI in [7] worked out at 3.66 µM; in assay [8], 4.86 µM; in assay [9], 4.56 µM.

Regarding `Oc1ccc(-c2nc(-c3ccc4oc5ccc(-c6[nH]c(-c7ccc(O)cc7)nc6-c6ccccc6)cc5c4c3)c(-c3ccccc3)[nH]2)cc1`, the GI50 in assay [1] is 2.23 µM; in [2], 3.17 µM; in assay [10] it was 3.9 µM; in assay [3], 3.12 µM; in assay [4], 4.46 µM; in assay [5], 2.93 µM. In addition, the GI50 in [6] was 6.96 µM; in [8] it was 1.98 µM; in assay [9], 12.1 µM. Also, the TGI was 5.32 µM in [1]; greater than 100 µM in assay [2]; greater than 100 µM in assay [10]; 9.69 µM in assay [3]; 75.5 µM in [4]; 13.5 µM in assay [5]. For the same molecule, the figures for the TGI in assay [6], in assay [8] and in [9] were 22.8 µM, 5.17 µM and 25.4 µM, respectively.

Consider `Cc1ccc(S(=O)(=O)NC2(C=O)CCC(C(C)(C)C)CC2)cc1` (stereo not drawn), for which the TGI in [1] is greater than 100 µM; in assay [2], 46.3 µM; in assay [10], greater than 100 µM; in assay [3], greater than 100 µM; in [4] it was 47.2 µM; in [6], greater than 100 µM. Besides, the TGI in [7] was greater than 100 µM; in [8], 36.9 µM; in assay [9] it was greater than 100 µM.
